Assay results taken from ChEMBL document CHEMBL4321841, “Development of small molecule inhibitors targeting NLRP3 inflammasome pathway for inflammatory diseases” (Eur J Med Chem, 2020).

Tests used:
[1] = biological target: T1, NACHT, LRR and PYD domains-containing protein 3 (Mus musculus, UniProt Q8R4B8); test: Inhibition of NLRP3 inflammasome activation in mouse J774A.1 cells assessed as reduction in IL-1beta level preincubated for 2 hrs followed by LPS-stimulation and further incubated for 5.5 hrs and subsequently ATP addition and measured after 30 mins by ELISA method; assay type: cell-based
T1 sequence (Q8R4B8 whole entry, the tested form may be a part): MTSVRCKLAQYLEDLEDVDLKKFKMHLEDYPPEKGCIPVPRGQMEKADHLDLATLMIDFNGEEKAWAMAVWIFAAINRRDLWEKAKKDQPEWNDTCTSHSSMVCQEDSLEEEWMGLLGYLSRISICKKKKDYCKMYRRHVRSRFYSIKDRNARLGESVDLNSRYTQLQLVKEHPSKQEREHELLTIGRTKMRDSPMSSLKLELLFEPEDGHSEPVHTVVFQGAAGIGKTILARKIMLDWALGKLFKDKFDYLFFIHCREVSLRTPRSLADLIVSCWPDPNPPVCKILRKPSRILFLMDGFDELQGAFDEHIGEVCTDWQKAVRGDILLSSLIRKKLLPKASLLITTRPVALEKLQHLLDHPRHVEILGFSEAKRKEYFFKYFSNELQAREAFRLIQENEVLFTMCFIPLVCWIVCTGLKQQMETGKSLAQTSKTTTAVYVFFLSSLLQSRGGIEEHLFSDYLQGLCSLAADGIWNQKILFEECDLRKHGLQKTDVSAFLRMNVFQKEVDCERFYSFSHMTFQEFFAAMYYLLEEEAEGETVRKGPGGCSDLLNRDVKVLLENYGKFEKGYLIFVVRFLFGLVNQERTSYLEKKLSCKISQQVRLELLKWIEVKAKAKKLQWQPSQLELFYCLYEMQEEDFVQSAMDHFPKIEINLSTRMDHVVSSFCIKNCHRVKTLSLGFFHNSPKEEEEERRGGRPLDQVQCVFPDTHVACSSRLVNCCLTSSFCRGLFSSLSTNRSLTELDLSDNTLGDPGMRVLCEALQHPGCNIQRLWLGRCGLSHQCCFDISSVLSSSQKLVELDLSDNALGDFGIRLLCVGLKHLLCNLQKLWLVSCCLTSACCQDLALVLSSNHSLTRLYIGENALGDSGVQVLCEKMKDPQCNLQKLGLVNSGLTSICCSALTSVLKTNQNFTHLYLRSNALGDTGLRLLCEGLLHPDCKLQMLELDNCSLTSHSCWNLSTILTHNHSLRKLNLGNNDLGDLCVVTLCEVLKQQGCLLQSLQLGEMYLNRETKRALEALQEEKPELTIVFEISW

[2] = biological target: T2, NACHT, LRR and PYD domains-containing protein 3 (Homo sapiens, UniProt Q96P20); test: Inhibition of NLRP3 inflammasome activation in LPS-stimulated human THP1 cells assessed as reduction in IL-1beta level at 10 uM preincubated for 1 hr followed by addition of ATP and measured after 1 hr by ELISA method relative to control
T2 sequence (Q96P20 whole entry, the tested form may be a part): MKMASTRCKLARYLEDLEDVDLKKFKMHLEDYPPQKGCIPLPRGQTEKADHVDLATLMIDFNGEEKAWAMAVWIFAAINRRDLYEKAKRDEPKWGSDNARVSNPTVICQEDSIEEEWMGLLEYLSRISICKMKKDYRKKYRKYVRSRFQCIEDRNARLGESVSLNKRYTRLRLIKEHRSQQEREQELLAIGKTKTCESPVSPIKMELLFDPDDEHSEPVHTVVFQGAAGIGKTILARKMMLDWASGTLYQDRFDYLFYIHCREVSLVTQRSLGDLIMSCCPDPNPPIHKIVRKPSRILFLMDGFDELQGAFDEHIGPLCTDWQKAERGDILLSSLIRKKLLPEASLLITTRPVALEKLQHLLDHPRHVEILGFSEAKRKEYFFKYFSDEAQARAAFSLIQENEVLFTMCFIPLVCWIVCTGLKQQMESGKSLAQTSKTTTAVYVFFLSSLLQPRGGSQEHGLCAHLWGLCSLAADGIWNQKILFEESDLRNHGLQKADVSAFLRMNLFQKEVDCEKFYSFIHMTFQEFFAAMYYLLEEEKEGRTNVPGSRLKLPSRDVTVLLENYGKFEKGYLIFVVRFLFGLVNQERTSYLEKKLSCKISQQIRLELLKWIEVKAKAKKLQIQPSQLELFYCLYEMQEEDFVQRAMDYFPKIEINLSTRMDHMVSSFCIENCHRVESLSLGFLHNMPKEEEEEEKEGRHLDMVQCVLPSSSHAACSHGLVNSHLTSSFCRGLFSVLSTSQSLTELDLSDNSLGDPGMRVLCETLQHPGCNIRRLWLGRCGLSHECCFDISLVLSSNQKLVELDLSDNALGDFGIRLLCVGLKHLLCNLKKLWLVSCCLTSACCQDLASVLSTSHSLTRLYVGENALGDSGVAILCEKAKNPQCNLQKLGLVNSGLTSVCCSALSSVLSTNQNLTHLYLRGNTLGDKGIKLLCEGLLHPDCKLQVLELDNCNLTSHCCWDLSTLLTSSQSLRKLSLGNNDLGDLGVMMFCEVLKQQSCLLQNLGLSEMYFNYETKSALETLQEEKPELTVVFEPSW

[3] = biological target: T2, NACHT, LRR and PYD domains-containing protein 3; test: Inhibition of NLRP3 inflammasome activation in LPS-primed human THP1 cells assessed as reduction in IL-1beta level at 20 uM preincubated for 1 hr followed by addition of ATP and measured after 3 hrs by ELISA method relative to control
[4] = biological target: T2, NACHT, LRR and PYD domains-containing protein 3; test: Inhibition of NLRP3 inflammasome activation in PMA differentiated human THP1 cells assessed as reduction in IL-1beta level at 10 uM preincubated for 30 mins followed by addition of MSU and meaured after 6 hrs by ELISA method relative to control
[5] = biological target: T1, NACHT, LRR and PYD domains-containing protein 3; test: Inhibition of NLRP3 inflammasome activation in LPS-primed mouse J774A.1 cells assessed as reduction in IL-1beta level preincubated for 1 hr followed by addition of ATP and measured after 30 mins by ELISA method
[6] = biological target: NACHT, LRR and PYD domains-containing protein 3 (Mus musculus) (UniProt Q8R4B8); test: Inhibition of NLRP3 inflammasome activation in LPS-primed mouse J774A.1 cells assessed as reduction in IL-1beta level at 10 uM preincubated for 1 hr followed by addition of ATP and measured after 30 mins by ELISA method relative to control
NACHT, LRR and PYD domains-containing protein 3 (Mus musculus), sequence (Q8R4B8 whole entry, the tested form may be a part): as the sequence (Q8R4B8 whole entry, the tested form may be a part) above

[7] = biological target: T1, NACHT, LRR and PYD domains-containing protein 3; test: Inhibition of NLRP3 inflammasome activation in LPS-primed mouse bone marrow derived macrophages assessed as reduction in IL-1beta level preincubated for 30 mins followed by addition of ATP and measured after 1 hr by ELISA method
[8] = biological target: T1, NACHT, LRR and PYD domains-containing protein 3; test: Inhibition of NLRP3 inflammasome activation in LPS-primed mouse NG5 cells assessed as reduction in IL-1beta level incubated for 15followed by addition of ATP by ELISA method; assay type: cell-based
[9] = biological target: T2, NACHT, LRR and PYD domains-containing protein 3; test: Inhibition of NLRP3 inflammasome activation in LPS-primed human THP1 cells assessed as reduction in IL-1beta level preincubated for 1 hr followed by addition of ATP and measured after 1 hr by ELISA method
[10] = biological target: T1, NACHT, LRR and PYD domains-containing protein 3; test: Inhibition of NLRP3 inflammasome activation in LPS-primed mouse bone marrow derived macrophages incubated for 1 hr followed by addition of ATP and measured after 1 hr by immunoblotting analysis
[11] = Half life in C57BL/6 mouse plasma at 3 mg/kg, iv or 20 mg/kg, po; assay type: ADME, organism-based; details: in vivo
Peroxiredoxin-1 = biological target: T3, Peroxiredoxin-1 (Homo sapiens, UniProt Q06830); test: Inhibition of PRDX1 in human PMA-differentiated LPS-stimulated THP1 cells assessed as reduction in NLRP3 inflammasome activation preincubated for 1 hr followed by addition of ATP and mesured after 1 hr by ELISA
T3 sequence (Q06830 whole entry): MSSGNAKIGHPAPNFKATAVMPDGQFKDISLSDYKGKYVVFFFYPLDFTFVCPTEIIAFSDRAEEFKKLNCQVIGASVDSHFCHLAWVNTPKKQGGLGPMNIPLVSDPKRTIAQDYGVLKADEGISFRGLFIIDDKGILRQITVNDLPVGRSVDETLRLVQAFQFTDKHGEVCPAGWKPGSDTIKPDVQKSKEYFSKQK

[12] = Cmax in mouse at 1000 mg, po administered once daily for 8 days; assay type: ADME, organism-based; set-up: dose 1000 mg, route oral; details: in vivo
[13] = biological target: T1, NACHT, LRR and PYD domains-containing protein 3; test: Inhibition of NLRP3 inflammasome activation in LPS-primed mouse J774A.1 cells assessed as reduction in IL-1beta level preincubated for 30 mins followed by addition of nigericin and measured after 40 mins by ELISA
[14] = biological target: T2, NACHT, LRR and PYD domains-containing protein 3; test: Inhibition of recombinant human NLRP3 ATPase assessed as reduction in ADP formation preincubated for 10 mins followed by ATP addition and measured after 40 mins by ADP-Glo assay
THP-1 [15] = test: Inhibition of pyroptosis in PMA-differentiated and LPS-primed human THP1 cells assessed as LDH activity preincubated for 1 hr followed by addition of ATP and measured after 1 hr by CytoTox 96 Non-Radioactive Cytotoxicity Assay; assay type: functional, cell-based
THP-1 [16] = test: Inhibition of pyroptosis in PMA-differentiated and LPSprimed human THP1 cells assessed as LDH activity at 10 uM preincubated for 1 hr followed by addition of ATP and measured after 1 hr by CytoTox 96 Non-Radioactive Cytotoxicity Assay relative to control; assay type: functional
[17] = biological target: T1, NACHT, LRR and PYD domains-containing protein 3; test: Inhibition of NLRP3 inflammasome activation in LPS-primed C57BL/6 mouse bone marrow derived macrophages preincubated for 15 mins followed by addition of ATP and measured after 1 hr by ELISA
[18] = biological target: T2, NACHT, LRR and PYD domains-containing protein 3; test: Inhibition of NLRP3 inflammasome activation in PMA differentiated human THP1 cells assessed as reduction in IL-1beta level preincubated for 30 mins followed by addition of MSU and meaured after 6 hrs by ELISA method relative to control

**Q.** For `COc1ccc(Cl)cc1C(=O)NCCc1ccc(S(=O)(=O)NO)cc1`, which IC50 [1] is on record?
**A.** 8.45 µM

**Q.** For `c1cc2[nH]c(-c3cscn3)nc2cn1`, which inhibition [2] is on record?
**A.** 30%

**Q.** For `CCCCCCC/C=C/C(=O)CCc1ccc(O)c(OC)c1`, which inhibition [3] is on record?
**A.** 60.3%

**Q.** Which inhibition [4] does the source give for `O=c1cc(-c2ccc(Cl)c(Cl)c2)oc2ccccc12` here?
**A.** 49.5%

**Q.** For `COc1ccc2c(c1)C(=O)N(c1ccccc1)C2=O`, which IC50 [5] is on record?
**A.** 5 µM

**Q.** Which inhibition [6] does the source give for `COc1ccc(-c2nc(O)c3ccccc3n2)cc1` here?
**A.** 28.8%

**Q.** Which IC50 [7] does the source give for `CCC1=C(C)CN(C(=O)NCCc2ccc(S(=O)(=O)NC(=O)Nc3c4c(cc5c3CCC5)CCC4)cc2)C1=O` here?
**A.** 0.042 µM

**Q.** For `Cc1ccc(S(=O)(=O)/C=C/C#N)cc1`, which IC50 [8] is on record?
**A.** 12 µM

**Q.** With `CCn1c(-c2ccccc2)nc2cc(C)ccc21` as the compound, how does the IC50 [9] read?
**A.** 10 µM

**Q.** Which IC50 [10] does the source give for `CC1CC(=O)c2s/c(=N\C3CCCCC3)oc2C1` (centres undefined) here?
**A.** 1.28 µM

**Q.** For `CC(C)(O)c1coc(S(=O)(=O)NC(=O)Nc2c3c(cc4c2CCC4)CCC3)c1`, which t1/2 [11] is on record?
**A.** 3.27 h

**Q.** With `O=C1/C(=C/c2ccccn2)CNC/C1=C\c1ccccn1` as the compound, how does the IC50 (Peroxiredoxin-1) read?
**A.** 0.95 µM

**Q.** Which inhibition [3] does the source give for `CCCCC/C=C/C(=O)CCc1ccc(O)c(OC)c1` here?
**A.** 100%

**Q.** What does the source list for `CS(=O)(=O)CCC#N` [DAPANSUTRILE]?
**A.** Cmax [12]: 311 µM; IC50 [13]: 0.001 µM

**Q.** For `O=[N+]([O-])c1ccc2[nH]c(-c3cscn3)nc2c1`, which inhibition [2] is on record?
**A.** 30%

**Q.** With `O=c1[nH]c(-c2ccc([N+](=O)[O-])cc2)nc2ccccc12` as the compound, how does the IC50 [5] read?
**A.** 5 µM

**Q.** With `C=C(Cc1ccccc1Cl)C(=O)NCCc1ccc(S(N)(=O)=O)cc1` as the compound, how does the IC50 [14] read?
**A.** 74 µM

**Q.** What about the IC50 (THP-1 [15]) of the same compound?
**A.** 23.2 µM

**Q.** And the inhibition at 10 µM (THP-1 [16])?
**A.** 45.8%

**Q.** For `Cc1cccc(Nc2ccccc2C(=O)O)c1C` [MEFENAMIC ACID], which IC50 [17] is on record?
**A.** 25 µM

**Q.** Which inhibition [6] does the source give for `O=c1[nH]c(-c2ccc(C(F)(F)F)cc2)nc2ccccc12` here?
**A.** 21.3%

**Q.** For `O=c1cc(-c2ccc(O)cc2)oc2cc(O)cc(O)c12` [APIGENIN], which IC50 [18] is on record?
**A.** 10 µM

**Q.** And the inhibition [4]?
**A.** 42.9%
